Patent publication US20160287672A1, “METHOD OF TREATING CHRONIC HEART FAILURE BY ADMINISTERING RELAXIN” (priority 2008, published 2016)
Read-outs that look alike come from different tables or passages of the source.

What was measured:
[1] = tested on: patients with chronic and stable compensated congestive HF; test: Open-label pilot study of IV recombinant relaxin over 24 hours in chronic heart failure patients; assay type: in vivo, human; conditions: for CI Change from baseline / CO Change from baseline / DBP Change from baseline / HR Change from baseline / PAP Change from baseline / PCWP Change from baseline / PVR Change from baseline / RAP Change from baseline / SBP Change from baseline / SVR Change from baseline: 960 mcg/kg/d IV, mean ± SD
Description: Overview. In this open-label study 16 patients with chronic and stable compensated congestive HF were enrolled in three dose-ascending cohorts of recombinant intravenous relaxin (10 to 960 mcg/kg/day) over 24 hours. Relaxin produced increases in cardiac index and stroke volume, and a decrease in pulmonary wedge pressure and NT-pro BNP. It improved markers of renal function, with a small rebound at the highest dose during post-infusion. […] A maximally tolerated dose was determined.
Design of Study. In this single-center, open-label study, 16 patients who fulfilled inclusion and but not exclusion criteria for chronic and stable compensated congestive HF were sequentially allocated to three ascending cohorts of intravenous (IV) relaxin. Main inclusion criteria included: Age >18 years; NYHA CHF Class II-III without restriction on etiology; left ventricular ejection fraction <35% within 6 months of enrollment; receiving established oral HF therapy expected to remain unchanged during the study period. Main exclusion criteria included: Wedge pressure <16 mmH or CI >2.5 L/min/m2; acute coronary syndrome (within 4 weeks) or recent myocardial infarction or cardiac surgery (within 6 months); AHF requiring intravenous therapy at baseline; systolic blood pressure <85 mmHg; uncorrected valvular heart disease, except for relative mitral and/or tricuspid valve insufficiency; obstructive or restrictive cardiomyopathy; recent episode of ventricular tachycardia or fibrillation (within 4 weeks); recent stroke (within 3 months); creatinine >2.0 mg/dl or serum transaminases and/or total bilirubin >2.5 times the upper limit of normal at screening visit; history of endometriosis.
The study drug was relaxin (produced by recombinant technology). Recombinant relaxin is identical to the native human hormone H2 relaxin. The dose escalation was as follows: Group A included sequential treatment for 8 hours each with dosages equivalent to 10, 30, and 100 mcg/kg/day. Group B included sequential treatment for 8 hours each with dosages equivalent to 240, 480, and 960 mcg/kg/day. Group C received 24 hours of treatment with 960 mcg/kg/day. Escalation from Group A to Group B was done after examining safety and tolerability of the doses used in Group A. Escalation from Group B to C occurred after the safety and tolerability of the highest dose in Group B (960 mcg/kg/day) was determined.
Patients were monitored in the intensive care unit for the infusion and post-infusion periods (24 hours either). Hemodynamic measurements, including CI, SVR, PCWP, SBP, RAP, and PVR, were serially performed using Swan-Ganz and arterial catheters. Likewise, clinical and laboratory monitoring was carried out serially throughout infusion and post-infusion and on Day 9 after beginning of infusion. An additional 30-day evaluation for serious adverse events was performed by phone. Endpoints included hemodynamic and neurohumoral (NT-pro BNP levels) changes from baseline, as well as monitoring of vital signs, electrocardiogram, serum chemistry, and hematology parameters throughout the study. For statistical analysis, an error probability of P<0.05 was regarded as significant. Baseline values were compared using the Kruskal-Wallis ANOVA on ranks followed by Dunn's test. Differences over time within the single groups (hemodynamics, renal parameter, and peptide levels) were analyzed with a Friedman Repeated Measures Analysis of Variance on Ranks followed by Dunn's test for comparison against the baseline.

[2] = tested on: systemic sclerosis patients; test: Clinical trials of relaxin by continuous subcutaneous infusion for six months in systemic sclerosis patients; assay type: in vivo, human; conditions: continuous SQ infusion for six months
From the text: Clinical trials with relaxin have also been conducted on systemic sclerosis patients. 257 human subjects who suffer from systemic sclerosis, a serious fibrotic disease, have been treated with relaxin by continuous and subcutaneous (SQ) infusion for six months. […] These findings support the hypothesis that relaxin administration was associated with balanced systemic and renal vasodilation.

[3] = tested on: systemic sclerosis patients; conditions: scleroderma patients (Seibold et al. 2000); cited from earlier work
[4] = tested on: hypertensive and normotensive rats; conditions: cited from earlier work
healthy volunteers = conditions: cited from earlier work
[5] = Group C, 960 mcg/kg/d IV over 24 hours

## relaxin: Study drug produced by recombinant technology, identical to the native human hormone H2 relaxin; peptide hormone of A and B chains
[1]; Group B, 8 hr
  CI Change from baseline: 0.25 ± 0.3 L/min/m2
  CO Change from baseline: 0.48 ± 0.7 L/min
  DBP Change from baseline: −0.3 ± 6.8 mmHg
  HR Change from baseline: 1.8 ± 3.4 beats/min
  PAP Change from baseline: 0.3 ± 3.7 mmHg
  PCWP Change from baseline: −0.17 ± 2.7 mmHg
  PVR Change from baseline: 3.3 ± 27.5 dynes * sec/cm5
  RAP Change from baseline: 0.8 ± 1.2 mmHg
  SBP Change from baseline: −3.0 ± 5.1 mmHg
  SVR Change from baseline: −102 ± 248 dynes * sec/cm5
[1]; [5]
  absolute decreases in PCWP: approximately 4 mm Hg
  absolute increases of CI: up to 0.81 /min/m2
[1]; Group C, 8 hr
  CI Change from baseline: 0.43 ± 0.3 L/min/m2
  CO Change from baseline: 0.85 ± 0.5 L/min
  DBP Change from baseline: −4.8 ± 5.4 mmHg
  HR Change from baseline: 2.5 ± 4.3 beats/min
  PAP Change from baseline: −3.2 ± 3.1 mmHg
  PCWP Change from baseline: −2.5 ± 3.5 mmHg
  PVR Change from baseline: −58.5 ± 69.4 dynes * sec/cm5
  RAP Change from baseline: −1.2 ± 2.9 mmHg
  SBP Change from baseline: −1.3 ± 4.7 mmHg
  SVR Change from baseline: −255 ± 188 dynes * sec/cm5
[1]; Group C, 24 hr
  CI Change from baseline: 0.67 ± 0.15 L/min/m2
  CO Change from baseline: 1.25 ± 0.03 L/min
  DBP Change from baseline: −6.5 ± 7.5 mmHg
  HR Change from baseline: 0.67 ± 3.6 beats/min
  PAP Change from baseline: −5.0 ± 3.4 mmHg
  PCWP Change from baseline: −3.5 ± 3.0 mmHg
  PVR Change from baseline: −82.5 ± 55.5 dynes * sec/cm5
  RAP Change from baseline: −1.5 ± 2.7 mmHg
  SBP Change from baseline: −7.3 ± 9.5 mmHg
  SVR Change from baseline: −395 ± 217 dynes * sec/cm5
[1]; Group C, 960 mcg/kg/day IV
  drop of PVR: ~30%
[1]; Groups A and C
  time course of NT-pro BNP: significant declines
[1]; after doses equivalent to 960 mcg/kg/day IV, spontaneously resolved by Day 30
  creatinine and BUN post-infusion: increase on Day 9
[1]; all doses, 10-960 mcg/kg/day IV
  tolerability: well tolerated
[1]; all groups
  infusion-related adverse events: no infusion-related clinically significant adverse events
  symptomatic hypotension: no symptomatic hypotension was observed
[1]; all groups, 10-960 mcg/kg/d IV
  heart rate: did not change in any group
[1]; all groups, significant in groups A and C
  creatinine values during infusion: decreased
[1]; all treatment groups
  right atrial pressure: None of the treatment groups showed a significant decrease
[1]; in general, all groups
  alterations of SBP: significant alterations of SBP (FIG. 8) were not observed
[1]; throughout the study
  vital signs, ECG, serum chemistry, and hematology parameters: did not evoke any abnormalities
[1]; without physician supervision, chronic HF patients
  maximally tolerated dose (MTD) of IV relaxin: 240 to 480 µg/kg/day
[2]
  blood pressure: stable decreases in blood pressure
  predicted creatinine clearance: statistically significant increase
  serious hypotensive events: did not experience any serious hypotensive events
[3]
  predicted creatinine clearance: sustained amelioration
[4]
  CI: increase in CI
  SVR: decrease in SVR
  mean arterial pressure: without affecting mean arterial pressure
Healthy volunteers
  renal blood flow: increases renal blood flow
